Test results from patent publication US5041542A, “Substituted pyrimido[5,4-d]pyrimidine nucleosides” (Nucleic Acid Research Institute, priority 1988, dated 1991).
Converted amounts (≈) assume the structure as drawn. Where two headings read alike, the source gives them in different places.

Columns and labels:
[1] = system: herpes simplex virus type 2 (MS strain); test: In vitro antiviral activity, herpes simplex virus type 2 (virus rating); type: cell-based; settings: Vero cells; VR >1.0 marked, 0.5 to 0.9 moderate, <0.5 weak or no activity
[2] = system: parainfluenza 3 (C243 strain); test: In vitro antiviral activity, parainfluenza 3 (virus rating); type: cell-based; settings: Vero cells; VR >1.0 marked, 0.5 to 0.9 moderate, <0.5 weak or no activity
[3] = physchem; settings: water
[4] = system: WI-L2 cells; test: In vitro cytotoxicity, WI-L2; type: cell-based; settings: Homo sapiens, WIL2, 72 h; 3 days, 37° C., MTT; read-out: Antitumor (ID50) WI-L2
Protocol: (§1) ^b (ID50) inhibitory dose is the μM concentration of the
(§2) In vitro cytotoxicity analysis was performed by using the following cell lines: L1210 (a murine leukemia), WI-L2 (a human B-lymphoblast), and LoVo/L (a human colon carcinoma). Cells were grown in RPMI 1640 medium supplemented with 10% fetal bovine serum, 20 mM HEPES, pH 7.4, and 2 mM glutamine. The cytotoxicity determinations were carried out in 96-well microtiter dishes containing a starting number of 5-10×10^3 cells per well and 0.1-100 μM concentrations of the compounds in triplicate wells. L1210 and WI-L2 were incubated with the compounds at 37° C. for 3 days, while Lovo/L was incubated for 5 days. After this time period, 25 μL of 4 mg/mL 3-(4,5-dimethylthiazol-2-yl)-2,5-diphenyltetrazolium bromide was added to each well and incubation was continued for 2 to 5 h. The formazan product was dissolved in isopropanol containing 0.04M HCl and the absorbance was determined with a microtiter plate reader. The absorbance was proportional to the number of cells.

[5] = system: vaccinia virus (Elstree strain); type: cell-based; settings: HeLa cells; VR >1.0 marked, 0.5 to 0.9 moderate, <0.5 weak or no activity
[6] = in vitro; type: biochemical; settings: adenosine deaminase, pH 7.5
Protocol: (§3) Samples were analyzed directly on reverse-phase HPLC. Enzymatic conversions were distinguished from hydrolysis by treating a parallel sample with EHNA to inhibit the deaminase activity.

[7] = system: adenosine deaminase; test: in vitro; type: biochemical; settings: compared with ARPP
Protocol: as §3

[8] = system: pyrimidine (CTP + UTP) and purine (ATP + GTP) nucleoside triphosphates; test: 14C-bicarbonate incorporation into acid soluble pyrimidine and purine nucleoside triphosphates; type: cell-based
From the text: Comparative effect of compounds on ^14 C-bicarbonate
incorporation into acid soluble pyrimidine (PyrTP,
CTP + UTP) and purine (PurTP, ATP + GTP) nucleoside

[9] = Lethal toxicity in treated mice
[10] = system: LoVo/L cells; test: In vitro cytotoxicity, LoVo/L; type: cell-based; settings: Homo sapiens, 120 h, 5 days, 37° C., MTT, read-out: Antitumor (ID50) LoVo/L
Protocol: as §1, §2

[11] = system: WI-L2 cells deficient in adenosine kinase; test: Cytotoxicity to WI-L2 cells deficient in adenosine kinase activity; type: cell-based, human; settings: 100 μM
Protocol: (§4) Compounds of the invention were also tested for certain biochemical properties. Compounds of the invention were studied for their effect on de novo purine biosynthesis by observing inhibition of incorporation of [^14 C]formate into the acid-soluble fraction of WI-L2 cells (see Table 3). […] However, 8 and 14 (100 μM) were not cytotoxic to WI-L2 cells deficient in adenosine kinase activity.
(§5) A normal lymphoblast phenotype B cell line, WI-L2 was used. The enzyme-deficient cell lines used in vitro are: HPRT-, a hypoxanthine-guanine phosphorbosyl transferase (EC 2.4.2.8)deficient line and AK-, an adenosine kinase (EC 2.7.1.20)deficient line. Cells were cultured in RPMI 1640 medium containing 5% dialyzed fetal bovine serum, 20 mM Na HEPES, pH 7.5 and 2 mM glutamine and maintained in log phase growth between 0.5 and 12×10^5 cells/mL. The mutant cell lines were periodically reselected by treatment with 6-thioguanine (HPRT-) or tubercidin (AK-).

[12] = system: L1210 cells; test: In vitro cytotoxicity, L1210; type: cell-based, murine; settings: Mus musculus, L1210, 72 h; 3 days, 37° C., MTT; read-out: Antitumor (ID50) L1210
Protocol: as §1, §2

[13] = delivered at 0.01 ml/g mouse weight
[14] = system: L1210; test: In vivo antitumor activity against L1210 in BDF1 mice
Protocol: Compounds 8, 11, 14 and 17 were comparatively evaluated in vivo for efficacy against L1210 in BDF1 mice.
Mice were inoculated i.p. with 1×10^6 L1210 cells 24 hr before qd, day 1, i.p. drug delivery. Drugs were solubilized in water and delivered at the rate of 0.01 ml/g mouse weight. Then control mice/drug were injected i.p. with equivalent volumes of a 0.9% solution of NaCl, the means and standard deviations reflecting the postinoculation life spans of these mice ranged from 6.30±0.48 to 6.60±0.97 days.

[15] = system: de novo purine biosynthesis in WI-L2 cells; test: Inhibition of de novo purine biosynthesis ([14C]formate incorporation); type: cell-based, human; settings: for minimal effective concentration: active at concentrations as low as, read-out: lowest active concentration, de novo purine biosynthesis; for activity at 0.25 µM / activity at 2.5 µM: pre-incubation 8 h; for inhibitory activity on de novo purine biosynthesis (ranking): WI-L2 cells
Protocol: as §4, §5
. Inhibition of de novo purine biosynthesis: WI-L2 or adenosine kinase-deficient cells were preincubated at 37° C. with drug for various time periods prior to labeling with [^14 C]formate. Enzyme Assays: Adenosine kinase inhibition studies were accomplished by the filter binding assay method. Inhibition studies were done at 37° C. with an assay mixture containing 4 mM ATP, 1.5 mM MgCl2, 5 or 10 μM [8-^14 C] adenosine (50 mCi/mmol) and 100 mM Tris-maleate, pH 5.5. To prevent the enzymatic breakdown of adenosine, erythro-9-(2-hydroxy-3-nonyl)adenine (EHNA) was added to the cell-free WI-L2 lysate to give 5 μM final assay concentration. The assay was started by the addition of protein. The amount of enzyme, time of assay and sampling volume were adjusted to give acceptable conversion of [8-^14 C] adenosine to [8-^14 C]AMP. Each DE-81 filter was spotted with a constant sampling volume and immersed in H 2 O (4 L) to terminate the reaction. Filters were washed three times with H2 O (4 L) and once with EtOH (100 mL). Dry filters were placed in scintillation vials and radioactivity was counted with 10 mL toluene-based scintillation cocktail.
De novo purine biosynthesis was measured by the incorporation of ^14 C-formate into cellular purine nucleotides or excreted purines after pre-incubation with compound.

[16] = Homo sapiens, WIL2, cell, read-out: de novo purine biosynthesis, % of control, cell, 0.25 μM
[17] = Homo sapiens, WIL2, cell, read-out: de novo purine biosynthesis, % of control, cell, 2.5 μM
[18] = Homo sapiens, WIL2, media (excreted purines), read-out: de novo purine biosynthesis, % of control, media, 0.25 μM
[19] = Homo sapiens, WIL2, media (excreted purines), read-out: de novo purine biosynthesis, % of control, media, 2.5 μM

SMILES | Antiviral (VR) HSV2 [1] | Antiviral (VR) PI3 [2] | solubility [3] | IC50 [4] | Antiviral (VR) VV [5] | substrate activity for adenosine deaminase [7] | lethal toxicity at maximum soluble dosage ([9]; i.p.) | IC50 [10] | cytotoxicity to adenosine kinase-deficient WI-L2 cells [11] | IC50 [12] | Maximum watersoluble dosage [13] | effect on de novo purine biosynthesis [15] | minimal effective concentration ([15]; Homo sapiens, WIL2) | activity at 0.25 µM [15, 16] | activity at 2.5 µM [15, 17] | activity at 0.25 µM [15, 18] | activity at 2.5 µM [15, 19] | inhibitory activity on de novo purine biosynthesis (ranking) [15] | further results
Nc1ncnc2c(N[C@@H]3O[C@H](CO)[C@@H](O)[C@H]3O)ncnc12 [Compound 8, 4-Amino-8-(β-D-ribofuranosylamino)pyrimido[5,4-d]pyrimidine, reference compound] | 0.8 VR | 0.7 VR | 17.3 mg/mL (≈ 58.8 mM) | 200 nM | 1.3 VR | preferential disappearance of the β-anomer | Neither drug was lethally toxic at its maximum soluble dosage | 7000 nM | not cytotoxic | 800 nM | 173 mg/kg/inj. | inhibit an early step in de novo purine biosynthesis | 0.25 µM | 79.5% | 29.9% | 71.9% | 54.6% | greatest inhibitory activity | metabolised at 5 min, 1000 µM ([6]; 5 min, β-anomer, read-out: conversion of β-anomer by adenosine deaminase in 5 min): 60%; CAA (carbamyl aspartate), 1.5 μM ([8]; 1.5 μM): 1608 cpm/10^6 cells; PurTP, 1.5 μM ([8]; 1.5 μM, zero = undetectable): 0 cpm/10^6 cells; PyrTP, 1.5 μM ([8]; 1.5 μM, zero = undetectable): 0 cpm/10^6 cells; activity at 1.5 µM ([8]; 1.5 μM, zero = undetectable, read-out: PurTP, % control, 1.5 μM): 0%; activity at 1.5 µM ([8]; read-out: PydTP, % control, 1.5 μM): 0%; Postinoculation Lifespan (% T/C), 173 mg/kg/inj. ([14]; 173 mg/kg/inj. i.p., qd, day 1): 162 % T/C; T/C ([14]; qd, day 1, at maximum soluble dosage): 162
COc1ncnc2c(N[C@@H]3O[C@H](CO)[C@@H](O)[C@H]3O)ncnc12 [Compound 14, 4-Methoxy-8-(β-D-ribofuranosylamino)pyrimido[5,4-d]pyrimidine] | 0.2 VR | 0.7 VR | 17.3 mg/mL (≈ 55.9 mM) | 60 nM | 1.0 VR | less active as a substrate for adenosine deaminase | lethally toxic at that level for all treated mice | 280 nM | not cytotoxic | 40 nM | 173 mg/kg/inj. | inhibit an early step in de novo purine biosynthesis | 0.25 µM | 41.9% | 2.7% | 63% | 41.8% | greatest inhibitory activity | metabolised at 18 h, 1000 µM ([6]; 18 h, same conditions as for ARPP, read-out: deaminated by adenosine deaminase in 18 h): < 10%; CAA (carbamyl aspartate), 5.0 μM ([8]; 5.0 μM): 1322 cpm/10^6 cells; PurTP, 5.0 μM ([8]; 5.0 μM, zero = undetectable): 0 cpm/10^6 cells; PyrTP, 5.0 μM ([8]; 5.0 μM, zero = undetectable): 0 cpm/10^6 cells; activity at 5 µM ([8]; 5.0 μM, zero = undetectable, read-out: PurTP, % control, 5.0 μM): 0%; activity at 5 µM ([8]; 5.0 μM, zero = undetectable, read-out: PydTP, % control, 5.0 μM): 0%; maximum non-lethal concentration ([9]; i.p., qd day 1): 6.2 mg/mL; death of treated mice at 10.4 mg/mL ([9]; made up at 10.4 mg/mL): 1/6; T/C, 62 mg/kg ([14]; 62 mg/kg, qd day 1): 182; Postinoculation Lifespan (% T/C), 62 mg/kg/inj. ([14]; 62 mg/kg/inj. i.p., qd, day 1): 182 % T/C; activity at 25 µM ([15]; Homo sapiens, WIL2, cell, 25 μM, pre-incubation 4 h, read-out: de novo purine biosynthesis, % of control, cell, 25 μM): 4.3%
